Laboratory results: patent publication US8207172B2 (Bayer Intellectual Property GmbH, priority 2004, dated 2012)
Counter-ions that a name gives are not always drawn.

Key:
[1] = system: BT474 (human breast carcinoma); assay: In vitro tumor cell proliferation assay (Cell Titer-Glo luminescent cell viability), BT474; assay type: cell-based; conditions: BT-474, 72 h, BT474 cells, 72 hours of drug exposure, ATP luminescence readout, read-out: IC50, anti-proliferative activity (inhibition of cell proliferation)
In short: (§1)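 CellTiter-Glo luminescence (ATP content of metabolically active cells) after 72 h compound exposure at 37° C gave IC50s.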

[2] = system: A431 cells (human epidermoid carcinoma); assay: In vitro tumor cell proliferation assay (Cell Titer-Glo luminescent cell viability), A431; assay type: cell-based; conditions: A-431, 72 h, 72 hours of drug exposure, ATP luminescence readout, read-out: IC50, anti-proliferative activity (inhibition of cell proliferation)
In short: as §1

`CN(C)c1ccc(NC(=O)Cn2ncc3c2CCc2c-3sc3ncnc(Nc4ccc(OCc5cccc(F)c5)c(Cl)c4)c23)cc1` [Example 192, 2-[6-({3-chloro-4-[(3-fluorobenzyl)oxy]phenyl}amino)-4,5-dihydro-3H-pyrimido[5′,4′:4,5]thieno[2,3-e]indazol-3-yl]-N-[4-(dimethylamino)phenyl]acetamide] was tested, and the IC50 [1] was ≤ 5 µM and the IC50 [2] was ≤ 50 µM.

In the case of `Fc1ccc(Nc2ncnc3sc4c(c23)CCc2nn(CCN3CCSCC3)cc2-4)cc1Cl` [Example 35, N-(3-chloro-4-fluorophenyl)-2-(2-thiomorpholin-4-ylethyl)-4,5-dihydro-2H-pyrimido[5′,4′:4,5]thieno[2,3-e]indazol-6-amine], the IC50 [1] is reported as ≤ 5 µM and the IC50 [2] is reported as ≤ 5 µM.

`CCN1CCC(CCn2cc3c(n2)CCc2c-3sc3ncnc(Nc4ccc(OCc5cccc(F)c5)c(Cl)c4)c23)CC1` [Example 254, N-{3-chloro-4-[(3-fluorobenzyl)oxy]phenyl}-2-[2-(1-ethylpiperidin-4-yl)ethyl]-4,5-dihydro-2H-pyrimido[5′,4′:4,5]thieno[2,3-e]indazol-6-amine] was tested, and the IC50 [1] was ≤ 1 µM and the IC50 [2] was ≤ 5 µM.

`CN1CCN(CCn2cc3c(n2)CCc2c-3sc3ncnc(Nc4ccc(OCc5ccccc5F)c(Cl)c4)c23)CC1` [Example 334, N-{3-chloro-4-[(2-fluorobenzyl)oxy]phenyl}-2-[2-(4-methylpiperazin-1-yl)ethyl]-4,5-dihydro-2H-pyrimido[5′,4′:4,5]thieno[2,3-e]indazol-6-amine] was tested, and the IC50 [1] was ≤ 1 µM and the IC50 [2] was ≤ 5 µM.

For `Fc1cccc(COc2ccc(Nc3ncnc4sc5c(c34)CCc3c-5cnn3CCNCCN3CCOCC3)cc2Cl)c1` [Example 259, N-{3-chloro-4-[(3-fluorobenzyl)oxy]phenyl}-3-{2-[(2-morpholin-4-ylethyl)amino]ethyl}-4,5-dihydro-3H-pyrimido[5′,4′:4,5]thieno[2,3-e]indazol-6-amine], the IC50 [1] was ≤ 5 µM and the IC50 [2] was ≤ 50 µM.

For `CN(C)C1CCN(CCn2cc3c(n2)CCc2c-3sc3ncnc(Nc4ccc(F)c(Cl)c4)c23)C1` (centres unmarked) [Example 15, N-(3-chloro-4-fluorophenyl)-2-{2-[3-(dimethylamino)pyrrolidin-1-yl]ethyl}-4,5-dihydro-2H-pyrimido[5′,4′:4,5]thieno[2,3-e]indazol-6-amine], the IC50 [1] was ≤ 1 µM and the IC50 [2] was ≤ 5 µM.

With `O=C(Cn1ncc2c1CCc1c-2sc2ncnc(Nc3ccc(OCc4cccc(F)c4)c(Cl)c3)c12)NCCN1CCOCC1` [Example 197, 2-[6-({3-chloro-4-[(3-fluorobenzyl)oxy]phenyl}amino)-4,5-dihydro-3H-pyrimido[5′,4′:4,5]thieno[2,3-e]indazol-3-yl]-N-(2-morpholin-4-ylethyl)acetamide] the IC50 [1] was ≤ 1 µM and the IC50 [2] was ≤ 50 µM.

For `Cc1cccc(COc2ccc(Nc3ncnc4sc5c(c34)CCc3nn(CCN4CCOCC4)cc3-5)cc2Cl)n1` [Example 119, N-{3-chloro-4-[(6-methylpyridin-2-yl)methoxy]phenyl}-2-(2-morpholin-4-ylethyl)-4,5-dihydro-2H-pyrimido[5′,4′:4,5]thieno[2,3-e]indazol-6-amine], the IC50 [1] was ≤ 5 µM and the IC50 [2] was ≤ 50 µM.

For `Cc1cc(Nc2ncnc3sc4c(c23)CCc2c-4cnn2CCN2CCN(C)CC2)ccc1OCc1cccc(F)c1` [Example 323, N-{4-[(3-fluorobenzyl)oxy]-3-methylphenyl}-3-[2-(4-methylpiperazin-1-yl)ethyl]-4,5-dihydro-3H-pyrimido[5′,4′:4,5]thieno[2,3-e]indazol-6-amine], the IC50 [1] was ≤ 1 µM and the IC50 [2] was ≤ 5 µM.

With `CN1CCN(CCn2cc3c(n2)CCc2c-3sc3ncnc(Nc4ccc(OCc5ccccc5Cl)c(Cl)c4)c23)CC1` [Example 332, N-{3-chloro-4-[(2-chlorobenzyl)oxy]phenyl}-2-[2-(4-methylpiperazin-1-yl)ethyl]-4,5-dihydro-2H-pyrimido[5′,4′:4,5]thieno[2,3-e]indazol-6-amine] the IC50 [1] was ≤ 1 µM and the IC50 [2] was ≤ 5 µM.

With `Fc1cccc(COc2ccc(Nc3ncnc4sc5c(c34)CCc3c-5cnn3CCN3CCN(Cc4ccncc4)CC3)cc2Cl)c1` [Example 263, N-{3-chloro-4-[(3-fluorobenzyl)oxy]phenyl}-3-{2-[4-(pyridin-4-ylmethyl)piperazin-1-yl]ethyl}-4,5-dihydro-3H-pyrimido[5′,4′:4,5]thieno[2,3-e]indazol-6-amine] the IC50 [1] was ≤ 1 µM and the IC50 [2] was ≤ 50 µM.

For `Fc1ccc(Nc2ncnc3sc4c(c23)CCc2nn(CCN3CCCC3)cc2-4)cc1Cl` [Example 9, N-(3-chloro-4-fluorophenyl)-2-(2-pyrrolidin-1-ylethyl)-4,5-dihydro-2H-pyrimido[5′,4′:4,5]thieno[2,3-e]indazol-6-amine], the IC50 [1] was ≤ 5 µM and the IC50 [2] was ≤ 5 µM.

`CN(C)[C@@H]1CCN(CCn2cc3c(n2)CCc2c-3sc3ncnc(Nc4ccc(OCc5cccc(F)c5)c(Cl)c4)c23)C1` [Example 60, N-{3-chloro-4-[(3-fluorobenzyl)oxy]phenyl}-2-{2-[(3R)-3-(dimethylamino)pyrrolidin-1-yl]ethyl}-4,5-dihydro-2H-pyrimido[5′,4′:4,5]thieno[2,3-e]indazol-6-amine] was tested, and the IC50 [1] was ≤ 1 µM and the IC50 [2] was ≤ 5 µM.

With `CN1CCN(CCn2cc3c(n2)CCc2c-3sc3ncnc(Nc4ccc(OCc5cccc(C(F)(F)F)c5)c(Cl)c4)c23)CC1` [Example 328, N-(3-chloro-4-{[3-(trifluoromethyl)benzyl]oxy}phenyl)-2-[2-(4-methylpiperazin-1-yl)ethyl]-4,5-dihydro-2H-pyrimido[5′,4′:4,5]thieno[2,3-e]indazol-6-amine] the IC50 [1] was ≤ 5 µM and the IC50 [2] was ≤ 5 µM.

`CN(C)C[C@@H](O)Cn1cc2c(n1)CCc1c-2sc2ncnc(Nc3ccc(OCc4cccc(F)c4)c(Cl)c3)c12` [Example 156, (2R)-1-[6-({3-chloro-4-[(3-fluorobenzyl)oxy]phenyl}amino)-4,5-dihydro-2H-pyrimido[5′,4′:4,5]thieno[2,3-e]indazol-2-yl]-3-(dimethylamino)propan-2-ol trifluoroacetate (salt)] was tested, and the IC50 [1] was ≤ 1 µM and the IC50 [2] was ≤ 50 µM.

For `COCCN(C)CCn1ncc2c1CCc1c-2sc2ncnc(Nc3ccc(OCc4cccc(F)c4)c(Cl)c3)c12` [Example 261, N-{3-chloro-4-[(3-fluorobenzyl)oxy]phenyl}-3-{2-[(2-methoxyethyl)(methyl)amino]ethyl}-4,5-dihydro-3H-pyrimido[5′,4′:4,5]thieno[2,3-e]indazol-6-amine], the IC50 [1] was ≤ 1 µM and the IC50 [2] was ≤ 50 µM.

For `CS(=O)(=O)CCNC(=O)Cn1cc2c(n1)CCc1c-2sc2ncnc(Nc3ccc(OCc4cccc(F)c4)c(Cl)c3)c12` [Example 180, 2-[6-({3-chloro-4-[(3-fluorobenzyl)oxy]phenyl}amino)-4,5-dihydro-2H-pyrimido[5′,4′:4,5]thieno[2,3-e]indazol-2-yl]-N-[2-(methylsulfonyl)ethyl]acetamide], the IC50 [1] was ≤ 1 µM and the IC50 [2] was ≤ 50 µM.

In the case of `CCc1nccn1CCn1cc2c(n1)CCc1c-2sc2ncnc(Nc3ccc(F)c(Cl)c3)c12` [Example 38, N-(3-chloro-4-fluorophenyl)-2-[2-(2-ethyl-1H-imidazol-1-yl)ethyl]-4,5-dihydro-2H-pyrimido[5′,4′:4,5]thieno[2,3-e]indazol-6-amine], the IC50 [1] is reported as ≤ 5 µM and the IC50 [2] is reported as ≤ 5 µM.

With `O=C(Cn1ncc2c1CCc1c-2sc2ncnc(Nc3ccc(OCc4cccc(F)c4)c(Cl)c3)c12)NCCN1CCNCC1` [Example 200, 2-[6-({3-chloro-4-[(3-fluorobenzyl)oxy]phenyl}amino)-4,5-dihydro-3H-pyrimido[5′,4′:4,5]thieno[2,3-e]indazol-3-yl]-N-(2-piperazin-1-ylethyl)acetamide] the IC50 [1] was ≤ 1 µM and the IC50 [2] was ≤ 50 µM.

For `CN1CCN(CCn2cc3c(n2)CCc2c-3sc3ncnc(Nc4ccc(Oc5cccnc5)c(F)c4)c23)CC1` [Example 343, N-[3-fluoro-4-(pyridin-3-yloxy)phenyl]-2-[2-(4-methylpiperazin-1-yl)ethyl]-4,5-dihydro-2H-pyrimido[5′,4′:4,5]thieno[2,3-e]indazol-6-amine], the IC50 [1] was ≤ 5 µM and the IC50 [2] was ≤ 50 µM.

For `Fc1cccc(COc2ccc(Nc3ncnc4sc5c(c34)CCc3nn(CCC4CCN(Cc6ccco6)CC4)cc3-5)cc2Cl)c1` [Example 248, N-{3-chloro-4-[(3-fluorobenzyl)oxy]phenyl}-2-{2-[1-(2-furylmethyl)piperidin-4-yl]ethyl}-4,5-dihydro-2H-pyrimido[5′,4′:4,5]thieno[2,3-e]indazol-6-amine], the IC50 [1] was ≤ 1 µM and the IC50 [2] was ≤ 5 µM.

With `O[C@H](CN1CCCCC1)Cn1cc2c(n1)CCc1c-2sc2ncnc(Nc3ccc(OCc4cccc(F)c4)c(Cl)c3)c12` [Example 148, (2R)-1-[6-({3-chloro-4-[(3-fluorobenzyl)oxy]phenyl}amino)-4,5-dihydro-2H-pyrimido[5′,4′:4,5]thieno[2,3-e]indazol-2-yl]-3-piperidin-1-ylpropan-2-ol trifluoroacetate (salt)] the IC50 [1] was ≤ 1 µM and the IC50 [2] was ≤ 50 µM.

`CNCCn1cc2c(n1)CCc1c-2sc2ncnc(Nc3ccc(OCc4cccc(F)c4)c(Cl)c3)c12` [Example 71, N-{3-chloro-4-[(3-fluorobenzyl)oxy]phenyl}-2-[2-(methylamino)ethyl]-4,5-dihydro-2H-pyrimido[5′,4′:4,5]thieno[2,3-e]indazol-6-amine] was tested, and the IC50 [1] was ≤ 1 µM and the IC50 [2] was ≤ 50 µM.

In the case of `CN1CCN(CCn2cc3c(n2)CCc2c-3sc3ncnc(Nc4ccc(Cl)c(Cl)c4)c23)CC1` [Example 45, N-(3,4-dichlorophenyl)-2-[2-(4-methylpiperazin-1-yl)ethyl]-4,5-dihydro-2H-pyrimido[5′,4′:4,5]thieno[2,3-e]indazol-6-amine], the IC50 [1] is reported as ≤ 1 µM and the IC50 [2] is reported as ≤ 5 µM.

In the case of `COCCNCCn1cc2c(n1)CCc1c-2sc2ncnc(Nc3ccc(OCc4ccccn4)c(Cl)c3)c12` [Example 103, N-[3-chloro-4-(pyridin-2-ylmethoxy)phenyl]-2-{2-[(2-methoxyethyl)amino]ethyl}-4,5-dihydro-2H-pyrimido[5′,4′:4,5]thieno[2,3-e]indazol-6-amine], the IC50 [1] is reported as ≤ 1 µM and the IC50 [2] is reported as ≤ 50 µM.
